For experiment [1], the target named is T1, ciGPR84 (Ctenopharyngodon idella, UniProt A0A8K1PH93). The experiment is described as follows: pGL4.29 (CRE) luciferase reporter assay, inhibition of forskolin-induced cAMP signaling in HEK293T cells transfected with ciGPR84. The class given is cell-based, grass carp (Ctenopharyngodon idella). To be noted: HEK293T co-transfected with pciGPR84 and pGL4.29, 5 μM forskolin, 6 h treatment; for IC50: read-out: IC50 (half-maximal inhibitory concentration) on cAMP through ciGPR84. The method, then: (§1) Human embryonic kidney cells HEK293T obtained from Beyotime Biotechnology (Shanghai, China) were cultured with Dulbecco’s Modified Eagle Medium (DMEM) containing a 10% fetal bovine serum in an incubator (37 °C and 5% CO2 humidified atmosphere). The cells were plated into 24-well plates and cultured for 24 h before assays. The Countess 3 cell counter (Invitrogen, Waltham, MA, USA) was used for cell counting.
(§2) The functionality of ciGPR84 was assessed using our established method. Specifically, the coding sequence (CDS) of ciGPR84 was subcloned into the pcDNA3.1 (+) vector (Invitrogen, Carlsbad, CA, USA), resulting in the construction of pcDNA3.1-ciGPR84 (pciGPR84). HEK293T cells were co-transfected with pciGPR84 (or pcDNA3.1 empty vector), two luciferase reporter vectors (pGL4.29 and pGL4.33) containing a cAMP response element (CRE) and serum response element (SRE), respectively, and pEGFP-N1 (as an internal control for transfection normalization) in a mixture with polyethyleneimine (PEI) transfection reagent (Fusheng Biotechnology, Shanghai, China). The cells were then incubated in the original medium for 24 h, transferred to a 48-well plate, and grown for an additional 24 h to reach a cell density of 2 × 10^5 cells per well. […] It is important to note that due to the anticipated inhibitory effect of MCFA on the intracellular cAMP, 5 μM forskolin was added to all wells transfected with pGL4.29 to pre-activate the cellular adenylyl cyclase.
(§3) After the treatment, cells were lysed with 1 × passive lysis buffer (Beyotime Biotechnology, Shanghai, China), and a luciferase substrate was added to initiate a glow-generating reaction. The luminescence signals were measured using a Tecan F200 (Tecan, Männedorf, Switzerland) microplate reader to determine the relative luciferase activity in each well. Three independent experiments were performed for each agonist concentration (n = 3), and the data were presented as a mean ± SEM.
(§4) A data analysis was performed using GraphPad Prism 7 software (GraphPad Software, San Diego, CA, USA).
On the technique in general: Reporter assays use an easily measured gene product as a stand-in for the process of interest.

The target in experiment [2] is T1, ciGPR84. The experiment is described as follows: pGL4.33 (SRE) luciferase reporter assay, activation of ERK signaling in HEK293T cells transfected with ciGPR84. Format: cell-based, grass carp (Ctenopharyngodon idella). To be noted: HEK293T co-transfected with ciGPR84 and pGL4.33 (SRE-luciferase), 6 h treatment; for EC50: read-out: EC50 for activation of ERK signaling through ciGPR84. The method, then: as §1, §2, §3, §4

The test system of experiment [3] is mouse GPR84. The arrangement: method as in PMID 16966319. To be noted: cited from earlier work.

Molecules are shown by their SMILES.

T1 sequence (A0A8K1PH93 entry or part of it): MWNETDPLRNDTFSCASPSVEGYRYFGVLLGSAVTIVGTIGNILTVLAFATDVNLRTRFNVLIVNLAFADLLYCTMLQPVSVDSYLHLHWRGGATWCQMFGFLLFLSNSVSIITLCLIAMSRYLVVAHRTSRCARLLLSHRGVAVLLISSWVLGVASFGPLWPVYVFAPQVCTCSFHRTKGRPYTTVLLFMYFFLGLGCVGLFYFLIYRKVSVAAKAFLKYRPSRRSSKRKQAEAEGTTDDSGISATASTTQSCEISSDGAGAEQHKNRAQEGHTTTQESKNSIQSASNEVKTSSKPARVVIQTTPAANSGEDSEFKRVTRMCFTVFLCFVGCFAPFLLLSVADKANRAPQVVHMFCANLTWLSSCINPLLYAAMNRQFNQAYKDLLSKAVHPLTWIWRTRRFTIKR

As for `c1ccc2c(Cc3c[nH]c4ccccc34)c[nH]c2c1` [DIM, diindolylmethane], the “inhibition of cAMP generation through ciGPR84” value in experiment [1] (DIM 10^−8 to 10^−3) was “did not lead to the inhibition of cAMP generation”. The “activation of ERK signaling through ciGPR84” value in experiment [2] (DIM 10^−8 to 10^−3) was “did not activate the ERK signaling”.
As a reminder, the EC50 is the concentration that produces a half-maximal response. As for `CCCCCCCCCC(=O)O` [capric acid], the EC50 in experiment [3] was 4 µM.
With `CCCCCCCCCCCC(=O)O` [lauric acid], in experiment [1], the IC50 amounted to 301 µM. Moreover, the EC50 in experiment [3] is 9 µM; in experiment [2] it was 4250 µM.
On to `CCCCCCCCC(=O)O` [nonanoic acid], for which the EC50 in experiment [3] is 52 µM.
As to `CCCCCCCCCCC(=O)O` [undecanoic acid], the IC50 in experiment [1] worked out at 1490 µM. The EC50 in experiment [2] was found to be 13800 µM.

The values are drawn from PMC10571743, “Molecular Cloning, Tissue Distribution, and Pharmacological Characterization of GPR84 in Grass Carp (Ctenopharyngodon Idella)” (Animals : an Open Access Journal from MDPI, 2023).
